Test results published in PubChem BioAssay (NCI).
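All cell lines were grown in 96-well plates and treated with compound for 48 hours. Definition used: TGI = concentration required for complete inhibition of growth.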

Columns and labels:
Experiment in all cases: inhibition of tumour cell growth, NCI panel, 48 h
UO-31 renal = system: UO-31 renal
OVCAR-3 ovarian = system: OVCAR-3 ovarian
HCT-116 colon = system: HCT-116 colon
SK-MEL-5 melanoma = system: SK-MEL-5 melanoma
EKVX NSCLC = system: EKVX NSCLC
RXF-631 renal = system: RXF-631 renal
K-562 leukemia = system: K-562 leukemia
ACHN renal = system: ACHN renal
TK-10 renal = system: TK-10 renal
HT29 colon = system: HT29 colon
U251 CNS = system: U251 CNS
OVCAR-5 ovarian = system: OVCAR-5 ovarian
HL-60(TB) leukemia = system: HL-60(TB) leukemia
SNB-75 CNS = system: SNB-75 CNS
SK-OV-3 ovarian = system: SK-OV-3 ovarian
KM12 colon = system: KM12 colon
SK-MEL-28 melanoma = system: SK-MEL-28 melanoma
IGROV1 ovarian = system: IGROV1 ovarian
A549 NSCLC = system: A549 NSCLC
LOX IMVI melanoma = system: LOX IMVI melanoma
UACC-257 melanoma = system: UACC-257 melanoma
SF-539 CNS = system: SF-539 CNS
COLO 205 colon = system: COLO 205 colon
SW-620 colon = system: SW-620 colon
SNB-19 CNS = system: SNB-19 CNS
HOP-92 NSCLC = system: HOP-92 NSCLC
DLD-1 colon = system: DLD-1 colon
OVCAR-8 ovarian = system: OVCAR-8 ovarian
DMS 273 small cell lung = system: DMS 273 small cell lung
NCI-H23 lung = system: NCI-H23 lung
RPMI-8226 leukemia = system: RPMI-8226 leukemia
SN12C renal = system: SN12C renal
CAKI-1 renal = system: CAKI-1 renal
SF-295 CNS = system: SF-295 CNS
LXFL 529 NSCLC = system: LXFL 529 NSCLC
OVCAR-4 ovarian = system: OVCAR-4 ovarian
MOLT-4 leukemia = system: MOLT-4 leukemia
NCI-H460 lung = system: NCI-H460 lung
786-0 renal = system: 786-0 renal
XF 498 CNS = system: XF 498 CNS
UACC-62 melanoma = system: UACC-62 melanoma
M19-MEL melanoma = system: M19-MEL melanoma
SF-268 CNS = system: SF-268 CNS
A498 renal = system: A498 renal
RXF 393 renal = system: RXF 393 renal
NCI-H522 lung = system: NCI-H522 lung
HOP-18 NSCLC = system: HOP-18 NSCLC
KM20L2 colon = system: KM20L2 colon
HCT-15 colon = system: HCT-15 colon
HCC-2998 colon = system: HCC-2998 colon
MALME-3M melanoma = system: MALME-3M melanoma
SR leukemia = system: SR leukemia
NCI-H226 lung = system: NCI-H226 lung
M14 melanoma = system: M14 melanoma
SK-MEL-2 melanoma = system: SK-MEL-2 melanoma
CCRF-CEM leukemia = system: CCRF-CEM leukemia
DMS 114 small cell lung = system: DMS 114 small cell lung
HOP-62 NSCLC = system: HOP-62 NSCLC
SNB-78 CNS = system: SNB-78 CNS

Compound `CN1CCC(SC2Cc3cc(Cl)ccc3Sc3ccccc32)CC1` (configuration not stated) has a TGI (UO-31 renal) of 16.7 µM, a TGI (OVCAR-3 ovarian) of 28.2 µM and a TGI (HCT-116 colon) of 22.5 µM. The TGI (SK-MEL-5 melanoma) was 26.8 µM, the TGI (EKVX NSCLC) was 34 µM and the TGI (RXF-631 renal) was 27.9 µM. The TGI (K-562 leukemia) was 21.9 µM, the TGI (ACHN renal) was 28.6 µM and the TGI (TK-10 renal) was 26.5 µM. For the same compound, the TGI (HT29 colon) was 15.3 µM, the TGI (U251 CNS) was 27.9 µM and the TGI (OVCAR-5 ovarian) was 30.3 µM. It also gave a TGI (HL-60(TB) leukemia) of 19.5 µM, a TGI (SNB-75 CNS) of 22.2 µM and a TGI (SK-OV-3 ovarian) of 30.4 µM. The TGI (KM12 colon) was 23.2 µM, the TGI (SK-MEL-28 melanoma) was 4.78 µM and the TGI (IGROV1 ovarian) was 29.6 µM. For the same compound, the TGI (A549 NSCLC) was 29.7 µM, the TGI (LOX IMVI melanoma) was 25.7 µM and the TGI (UACC-257 melanoma) was 21.3 µM. For the same compound, the TGI (SF-539 CNS) was 33.8 µM, the TGI (COLO 205 colon) was 27.2 µM and the TGI (SW-620 colon) was 30.9 µM. It also gave a TGI (SNB-19 CNS) of 29 µM, a TGI (HOP-92 NSCLC) of 26.9 µM and a TGI (DLD-1 colon) of 28.2 µM. For the same compound, the TGI (OVCAR-8 ovarian) was 31.5 µM, the TGI (DMS 273 small cell lung) was 26.2 µM and the TGI (NCI-H23 lung) was 27.9 µM. For the same compound, the TGI (RPMI-8226 leukemia) was 23.3 µM, the TGI (SN12C renal) was 28.5 µM and the TGI (CAKI-1 renal) was 23.7 µM. It also gave a TGI (SF-295 CNS) of 30.7 µM, a TGI (LXFL 529 NSCLC) of 26.3 µM and a TGI (OVCAR-4 ovarian) of 29 µM. For the same compound, the TGI (MOLT-4 leukemia) was 20.3 µM, the TGI (NCI-H460 lung) was 31.4 µM and the TGI (786-0 renal) was 27.7 µM. The TGI (XF 498 CNS) was 30 µM, the TGI (UACC-62 melanoma) was 11.4 µM and the TGI (M19-MEL melanoma) was 25.3 µM. It also gave a TGI (SF-268 CNS) of 25.5 µM, a TGI (A498 renal) of 31.6 µM and a TGI (RXF 393 renal) of 17.1 µM. The TGI (NCI-H522 lung) was 28.4 µM, the TGI (HOP-18 NSCLC) was 26.7 µM and the TGI (KM20L2 colon) was 17.8 µM. For the same compound, the TGI (HCT-15 colon) was 31.1 µM, the TGI (HCC-2998 colon) was 21.3 µM and the TGI (MALME-3M melanoma) was 28.8 µM. It also gave a TGI (SR leukemia) of 23.1 µM, a TGI (NCI-H226 lung) of 30 µM and a TGI (M14 melanoma) of 15.7 µM.

`Cc1ccc(S(=O)(=O)n2cc(/C=C/C#N)c(/C=C/C#N)c2)cc1` showed a TGI (UO-31 renal) of over 100 µM, a TGI (OVCAR-3 ovarian) of over 100 µM and a TGI (SK-MEL-5 melanoma) of over 100 µM. It also gave a TGI (EKVX NSCLC) of over 100 µM, a TGI (RXF-631 renal) of over 100 µM and a TGI (K-562 leukemia) of over 100 µM. For the same compound, the TGI (SK-MEL-2 melanoma) was over 100 µM, the TGI (ACHN renal) was over 100 µM and the TGI (TK-10 renal) was over 100 µM. The TGI (HT29 colon) was over 100 µM, the TGI (U251 CNS) was over 100 µM and the TGI (OVCAR-5 ovarian) was over 100 µM. It also gave a TGI (HL-60(TB) leukemia) of over 100 µM, a TGI (SNB-75 CNS) of over 100 µM and a TGI (SK-OV-3 ovarian) of over 100 µM. It also gave a TGI (KM12 colon) of over 100 µM, a TGI (SK-MEL-28 melanoma) of over 100 µM and a TGI (IGROV1 ovarian) of over 100 µM. It also gave a TGI (A549 NSCLC) of over 100 µM, a TGI (LOX IMVI melanoma) of over 100 µM and a TGI (UACC-257 melanoma) of over 100 µM. For the same compound, the TGI (SF-539 CNS) was over 100 µM, the TGI (COLO 205 colon) was over 100 µM and the TGI (SW-620 colon) was over 100 µM. For the same compound, the TGI (CCRF-CEM leukemia) was over 100 µM, the TGI (SNB-19 CNS) was over 100 µM and the TGI (HOP-92 NSCLC) was 86.7 µM. It also gave a TGI (OVCAR-8 ovarian) of over 100 µM, a TGI (DMS 273 small cell lung) of over 100 µM and a TGI (NCI-H23 lung) of over 100 µM. The TGI (RPMI-8226 leukemia) was over 100 µM, the TGI (SN12C renal) was over 100 µM and the TGI (SF-295 CNS) was over 100 µM. The TGI (LXFL 529 NSCLC) was over 100 µM, the TGI (OVCAR-4 ovarian) was over 100 µM and the TGI (MOLT-4 leukemia) was over 100 µM. The TGI (NCI-H460 lung) was over 100 µM, the TGI (786-0 renal) was over 100 µM and the TGI (XF 498 CNS) was over 100 µM. For the same compound, the TGI (DMS 114 small cell lung) was over 100 µM, the TGI (UACC-62 melanoma) was over 100 µM and the TGI (M19-MEL melanoma) was over 100 µM. It also gave a TGI (SF-268 CNS) of over 100 µM, a TGI (A498 renal) of over 100 µM and a TGI (RXF 393 renal) of over 100 µM. It also gave a TGI (HOP-62 NSCLC) of over 100 µM, a TGI (HOP-18 NSCLC) of over 100 µM and a TGI (KM20L2 colon) of over 100 µM. It also gave a TGI (HCT-15 colon) of over 100 µM, a TGI (MALME-3M melanoma) of over 100 µM and a TGI (M14 melanoma) of over 100 µM.

`CC(C)=CC1CC(=O)C1(C)Sc1ccccc1` (configuration not stated) showed a TGI (UO-31 renal) of over 100 µM, a TGI (OVCAR-3 ovarian) of over 100 µM and a TGI (HCT-116 colon) of over 100 µM. The TGI (SK-MEL-5 melanoma) was over 100 µM, the TGI (EKVX NSCLC) was over 100 µM and the TGI (RXF-631 renal) was over 100 µM. It also gave a TGI (K-562 leukemia) of 59.4 µM, a TGI (SK-MEL-2 melanoma) of over 100 µM and a TGI (ACHN renal) of over 100 µM. It also gave a TGI (TK-10 renal) of over 100 µM, a TGI (HT29 colon) of 66.6 µM and a TGI (U251 CNS) of over 100 µM. For the same compound, the TGI (OVCAR-5 ovarian) was over 100 µM, the TGI (HL-60(TB) leukemia) was 46.7 µM and the TGI (SNB-75 CNS) was over 100 µM. It also gave a TGI (SK-OV-3 ovarian) of over 100 µM, a TGI (KM12 colon) of over 100 µM and a TGI (SK-MEL-28 melanoma) of over 100 µM. For the same compound, the TGI (IGROV1 ovarian) was over 100 µM, the TGI (A549 NSCLC) was over 100 µM and the TGI (LOX IMVI melanoma) was 36.1 µM. The TGI (UACC-257 melanoma) was over 100 µM, the TGI (SF-539 CNS) was over 100 µM and the TGI (COLO 205 colon) was 65.1 µM. It also gave a TGI (CCRF-CEM leukemia) of 45 µM, a TGI (SNB-19 CNS) of over 100 µM and a TGI (HOP-92 NSCLC) of 87 µM. It also gave a TGI (DLD-1 colon) of over 100 µM, a TGI (OVCAR-8 ovarian) of over 100 µM and a TGI (NCI-H23 lung) of over 100 µM. It also gave a TGI (RPMI-8226 leukemia) of 45.9 µM, a TGI (SN12C renal) of over 100 µM and a TGI (CAKI-1 renal) of over 100 µM. It also gave a TGI (SF-295 CNS) of over 100 µM, a TGI (LXFL 529 NSCLC) of over 100 µM and a TGI (OVCAR-4 ovarian) of over 100 µM. For the same compound, the TGI (MOLT-4 leukemia) was 92.1 µM, the TGI (NCI-H460 lung) was 54.4 µM and the TGI (786-0 renal) was over 100 µM. It also gave a TGI (XF 498 CNS) of 95.7 µM, a TGI (DMS 114 small cell lung) of 32.6 µM and a TGI (UACC-62 melanoma) of over 100 µM. For the same compound, the TGI (M19-MEL melanoma) was 72.1 µM, the TGI (SF-268 CNS) was over 100 µM and the TGI (A498 renal) was over 100 µM. The TGI (RXF 393 renal) was 72 µM, the TGI (SNB-78 CNS) was over 100 µM and the TGI (HOP-62 NSCLC) was over 100 µM. The TGI (NCI-H522 lung) was 69.1 µM, the TGI (HOP-18 NSCLC) was over 100 µM and the TGI (KM20L2 colon) was over 100 µM. For the same compound, the TGI (HCT-15 colon) was 34.8 µM, the TGI (HCC-2998 colon) was over 100 µM and the TGI (MALME-3M melanoma) was over 100 µM. For the same compound, the TGI (SR leukemia) was 41.4 µM, the TGI (NCI-H226 lung) was over 100 µM and the TGI (M14 melanoma) was over 100 µM.
